# Assay results taken from US20210253575A1, “PYRROLIDINE AMINE COMPOUNDS FOR THE TREATMENT OF AUTOIMMUNE DISEASE” (Hoffmann-La Roche Inc., priority 2018, published 2021).
# Molecular target: T1, human TLR9 (Homo sapiens, UniProt Q9NR96)
# T1 sequence (Q9NR96 26-1032): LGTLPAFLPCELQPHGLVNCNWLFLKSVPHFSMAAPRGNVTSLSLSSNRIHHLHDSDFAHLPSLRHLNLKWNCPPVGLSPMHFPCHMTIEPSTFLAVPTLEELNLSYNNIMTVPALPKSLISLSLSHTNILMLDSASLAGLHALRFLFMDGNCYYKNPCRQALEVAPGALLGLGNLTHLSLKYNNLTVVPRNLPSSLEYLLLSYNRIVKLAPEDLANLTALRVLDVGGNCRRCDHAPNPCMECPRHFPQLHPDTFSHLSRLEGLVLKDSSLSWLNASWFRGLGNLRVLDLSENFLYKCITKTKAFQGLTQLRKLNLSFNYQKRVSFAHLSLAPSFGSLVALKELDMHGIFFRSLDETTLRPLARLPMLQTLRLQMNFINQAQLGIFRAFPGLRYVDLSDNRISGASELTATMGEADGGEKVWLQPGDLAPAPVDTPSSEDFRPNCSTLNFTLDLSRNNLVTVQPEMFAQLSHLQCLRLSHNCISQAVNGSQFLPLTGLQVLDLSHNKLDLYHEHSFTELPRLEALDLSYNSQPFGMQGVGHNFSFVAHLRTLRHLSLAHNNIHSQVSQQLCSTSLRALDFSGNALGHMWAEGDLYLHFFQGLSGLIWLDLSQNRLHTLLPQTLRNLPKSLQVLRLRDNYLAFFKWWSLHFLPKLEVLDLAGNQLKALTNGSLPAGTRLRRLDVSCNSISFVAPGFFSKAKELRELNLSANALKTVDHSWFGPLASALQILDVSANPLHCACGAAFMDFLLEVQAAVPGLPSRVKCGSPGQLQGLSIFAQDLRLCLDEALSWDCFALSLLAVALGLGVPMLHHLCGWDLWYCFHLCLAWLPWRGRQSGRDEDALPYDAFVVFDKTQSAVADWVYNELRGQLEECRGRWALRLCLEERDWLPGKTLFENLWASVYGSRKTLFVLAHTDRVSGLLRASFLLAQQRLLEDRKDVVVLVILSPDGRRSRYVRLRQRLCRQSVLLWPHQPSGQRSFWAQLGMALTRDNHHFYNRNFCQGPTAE
# Experiment: HEK293-Blue-hTLR-9 cells assay (SEAP reporter, ODN2006 stimulation)
# Assay type: cell-based
# Conditions: HEK293-Blue-hTLR9 cells, ODN2006 ligand, 20 hrs incubation
# Method: The following tests were carried out in order to determine the activity of the compounds of formula (I) in HEK293-Blue-hTLR-7/8/9 cells assay.
# HEK293-Blue-hTLR-9 Cells Assay:
# A stable HEK293-Blue-hTLR-9 cell line was purchased from InvivoGen (Cat. #: hkb-htlr9, San Diego, Calif., USA). These cells were originally designed for studying the stimulation of human TLR9 by monitoring the activation of NF-κB. A SEAP (secreted embryonic alkaline phosphatase) reporter gene was placed under the control of the IFN-β minimal promoter fused to five NF-κB and AP-1-binding sites. The SEAP was induced by activating NF-κB and AP-1 via stimulating HEK-Blue hTLR9 cells with TLR9 ligands. Therefore the reporter expression was declined by TLR9 antagonist under the stimulation of a ligand, such as ODN2006 (Cat. #: tlrl-2006-1, Invivogen, San Diego, Calif., USA), for incubation of 20 hrs. The cell culture supernatant SEAP reporter activity was determined using QUANTI-Blue™ kit (Cat. #: rep-qb1, Invivogen, San Diego, Calif., USA) at a wavelength of 640 nm, a detection medium that turns purple or blue in the presence of alkaline phosphatase.
# HEK293-Blue-hTLR9 cells were incubated at a density of 250,000˜450,000 cells/mL in a volume of 170 μL in a 96-well plate in Dulbecco's Modified Eagle's medium (DMEM) containing 4.5 g/L glucose, 50 U/mL penicillin, […], […], 2 mM L-glutamine, 10% (v/v) heat-inactivated fetal bovine serum with addition of 20 μL test compound in a serial dilution in the presence of final DMSO at 1% and 10 μL of 20 uM ODN2006 in above DMEM, perform incubation under 37° C. in a CO2incubator for 20 hrs. Then 20 μL of the superatant from each well was incubated with 180 μL Quanti-blue substrate solution at 37° C. for 2 hrs and the absorbance was read at 620˜655 nm using a spectrophotometer. The signalling pathway that TLR9 activation leads to downstream NF-κB activation has been widely accepted, and therefore similar reporter assay was modified for evaluating TLR9 antagonist.
row,Compound,IC50
1,"N#Cc1ccc(N2C[C@H](CN3CCC(N)CC3)[C@@H](C(F)(F)F)C2)c2nccnc12 [Example 51, 8-[(3S,4R)-3-[(4-amino-1-piperidyl)methyl]-4-(trifluoromethyl)pyrrolidin-1-yl]quinoxaline-5-carbonitrile]",359 nM
2,"N#Cc1ccc(N2C[C@H](CN3CCC(N4CCNCC4)CC3)[C@@H](C(F)(F)F)C2)c2cccnc12 [Example 52, 5-[(3S,4R)-3-[(4-piperazin-1-yl-1-piperidyl)methyl]-4-(trifluoromethyl)pyrrolidin-1-yl]quinoline-8-carbonitrile]",208 nM
3,"N#Cc1ccc(N2C[C@H](CN3CC4(CC(N)C4)C3)[C@@H](C(F)(F)F)C2)c2cccnc12 [Example 53, 5-[(3S,4R)-3-[(6-Amino-2-azaspiro[3.3]heptan-2-yl)methyl]-4-(trifluoromethyl)pyrrolidin-1-yl]quinoline-8-carbonitrile]",219 nM
4,"N#Cc1ccc(N2C[C@H](CN3CCC4(CCNC4)CC3)[C@@H](C(F)(F)F)C2)c2cccnc12 [Example 54, 5-[(3S,4R)-3-(2,8-Diazaspiro[4.5]decan-8-ylmethyl)-4-(trifluoromethyl)pyrrolidin-1-yl]quinoline-8-carbonitrile]",152 nM
5,"N#Cc1ccc(N2C[C@H](CN3CCC4(CCCNC4)CC3)[C@@H](C(F)(F)F)C2)c2cccnc12 [Example 55, 5-[(3S,4R)-3-(2,9-Diazaspiro[5.5]undecan-9-ylmethyl)-4-(trifluoromethyl)pyrrolidin-1-yl]quinoline-8-carbonitrile]",173 nM
6,"N#Cc1ccc(N2C[C@H](CN3CCC4(CCNCC4)C3)[C@@H](C(F)(F)F)C2)c2cccnc12 [Example 56, 5-[(3S,4R)-3-(2,8-Diazaspiro[4.5]decan-2-ylmethyl)-4-(trifluoromethyl)pyrrolidin-1-yl]quinoline-8-carbonitrile]",159 nM
7,"N#Cc1ccc(N2C[C@H](CN3CCCC4(CCNCC4)C3)[C@@H](C(F)(F)F)C2)c2cccnc12 [Example 57, 5-[(3S,4R)-3-(2,9-Diazaspiro[5.5]undecan-2-ylmethyl)-4-(trifluoromethyl)pyrrolidin-1-yl]quinoline-8-carbonitrile]",331 nM
8,"N#Cc1ccc(N2CC(CN3CCC(N4CCOCC4)CC3)C3(CC3)C2)c2nccnc12 (stereo not drawn) [Example 58, 8-[7-[(4-Morpholino-1-piperidyl)methyl]-5-azaspiro[2.4]heptan-5-yl]quinoxaline-5-carbonitrile]",605 nM
9,"N#Cc1ccc(N2C[C@H](CN3CCNCC3)[C@@H](C(F)(F)F)C2)c2nccnc12 [Example 59, 8-[(3S,4R)-3-(Piperazin-1-ylmethyl)-4-(trifluoromethyl)pyrrolidin-1-yl]quinoxaline-5-carbonitrile]",2700 nM
10,"N#Cc1ccc(N2C[C@H](CN3CCC(N4CCCC4)CC3)[C@@H](C(F)(F)F)C2)c2nccnc12 [Example 60, 8-[(3S,4R)-3-[(4-Pyrrolidin-1-yl-1-piperidyl)methyl]-4-(trifluoromethyl)pyrrolidin-1-yl]quinoxaline-5-carbonitrile]",509 nM
11,"N#Cc1ccc(N2C[C@H](CN3CCC(N4CCCCC4)CC3)[C@@H](C(F)(F)F)C2)c2nccnc12 [Example 61, 8-[(3S,4R)-3-[[4-(1-Piperidyl)-1-piperidyl]methyl]-4-(trifluoromethyl)pyrrolidin-1-yl]quinoxaline-5-carbonitrile]",438 nM
12,"N#Cc1ccc(N2C[C@H](CN3CCC(N4CCCCCC4)CC3)[C@@H](C(F)(F)F)C2)c2nccnc12 [Example 62, 8-[(3S,4R)-3-[[4-(Azepan-1-yl)-1-piperidyl]methyl]-4-(trifluoromethyl)pyrrolidin-1-yl]quinoxaline-5-carbonitrile]",409 nM
13,"N#Cc1ccc(N2C[C@H](CN3C4CCC3CC(N)C4)[C@@H](C(F)(F)F)C2)c2nccnc12 (stereo partly drawn) [Example 63, 8-[(3S,4R)-3-[(3-amino-8-azabicyclo[3.2.1]octan-8-yl)methyl]-4-(trifluoromethyl)pyrrolidin-1-yl]quinoxaline-5-carbonitrile]",294 nM
14,"N#Cc1ccc(N2C[C@H](CN3CCC(N)C(F)(F)C3)[C@@H](C(F)(F)F)C2)c2nccnc12 (stereo partly drawn) [Example 64, 8-[(3S,4R)-3-[(4-amino-3,3-difluoro-1-piperidyl)methyl]-4-(trifluoromethyl)pyrrolidin-1-yl]quinoxaline-5-carbonitrile]",23100 nM
15,"N#Cc1ccc(N2CC(CN3CCC4(CCCCN4)CC3)C3(CC3)C2)c2nccnc12 (stereo not drawn) [Example 65, 8-[7-(1,9-Diazaspiro[5.5]undecan-9-ylmethyl)-5-azaspiro[2.4]heptan-5-yl]quinoxaline-5-carbonitrile]",68 nM
16,"N#Cc1ccc(N2CC(CN3CCC4NCC4C3)C3(CC3)C2)c2nccnc12 (stereo not drawn) [Example 66, 8-[7-(3,7-Diazabicyclo[4.2.0]octan-3-ylmethyl)-5-azaspiro[2.4]heptan-5-yl]quinoxaline-5-carbonitrile]",123 nM
17,"N#Cc1ccc(N2CC(CN3CCOC4(CCNCC4)C3)C3(CC3)C2)c2nccnc12 (stereo not drawn) [Example 67, 8-[7-(1-Oxa-4,9-diazaspiro[5.5]undecan-4-ylmethyl)-5-azaspiro[2.4]heptan-5-yl]quinoxaline-5-carbonitrile]",869 nM
18,"N#Cc1ccc(N2CC(CN3CCC(N)CC3)C3(CC3)C2)c2nccnc12 (stereo not drawn) [Example 68, 8-[7-[(4-Amino-1-piperidyl)methyl]-5-azaspiro[2.4]heptan-5-yl]quinoxaline-5-carbonitrile]",93 nM
19,"N#Cc1ccc(N2C[C@H](CN3CCCC(C(N)=O)C3)[C@@H](C(F)(F)F)C2)c2nccnc12 (stereo partly drawn) [Example 69, 1-[[(3S,4R)-1-(S-cyanoquinoxalin-5-yl)-4-(trifluoromethyl)pyrrolidin-3-yl]methyl]piperidine-3-carboxamide]",15700 nM
20,"N#Cc1ccc(N2C[C@H](CN3CCC4(CC3)CNCCO4)[C@@H](C(F)(F)F)C2)c2nccnc12 [Example 70, 8-[(3S,4R)-3-(1-oxa-4,9-diazaspiro[5.5]undecan-9-ylmethyl)-4-(trifluoromethyl)pyrrolidin-1-yl]quinoxaline-5-carbonitrile]",253 nM
21,"N#Cc1ccc(N2C[C@H](CNC3CCNCC3)[C@@H](C(F)(F)F)C2)c2nccnc12 [Example 71, 8-[(3S,4R)-3-[(4-piperidylamino)methyl]-4-(trifluoromethyl)pyrrolidin-1-yl]quinoxaline-5-carbonitrile]",87 nM
22,"C[C@H]1CN(C[C@H]2CN(c3ccc(C#N)c4nccnc34)C[C@@H]2C(F)(F)F)CC[C@H]1N [Example 72, 8-[(3S,4R)-3-[[(3S,4R)-4-amino-3-methyl-1-piperidyl]methyl]-4-(trifluoromethyl)pyrrolidin-1-yl]quinoxaline-5-carbonitrile]",506 nM
23,"N#Cc1ccc(N2C[C@H](CN3CC4CCC(C3)C4N)[C@@H](C(F)(F)F)C2)c2nccnc12 (stereo partly drawn) [Example 73, 8-[(3S,4R)-3-[(8-amino-3-azabicyclo[3.2.1]octan-3-yl)methyl]-4-(trifluoromethyl)pyrrolidin-1-yl]quinoxaline-5-carbonitrile]",1190 nM
24,"N#Cc1ccc(N2C[C@H](CN3CCC(CN)CC3)[C@@H](C(F)(F)F)C2)c2nccnc12 [Example 74, 8-[(3S,4R)-3-[[4-(aminomethyl)-1-piperidyl]methyl]-4-(trifluoromethyl)pyrrolidin-1-yl]quinoxaline-5-carbonitrile]",325 nM
